From patent US6818203B2, “Use of perfluoroalkyl-containing metal complexes as contrast media in MR-imaging for visualization of plaque, tumors and necroses” (Schering Aktiengesellschaft, priority 2000, dated 2004)

Legend:
Assay type in all cases: in vivo
myocardial infarction = assay: infarction visualization (MRT) after intravenous administration in rats with acutely induced myocardial infarction
Excerpt: The successful induction of an acute myocardial infarction was confirmed by means of NBT-staining.

[1] = system: primary tumor (VX2-tumor implanted i.m.); assay: tumor visualization (MRT) after intravenous administration in VX2-tumor-bearing rabbits; conditions: 200 μmol of Gd/kg i.v.; for enhancement of the primary tumor (especially the periphery): 15 minutes p.i.
Description: The pictures of FIG. 6 show MR images of an iliac lymph node and of a primary tumor (VX2-tumor implanted i.m.) precontrast, 60 minutes and 20 hours after intravenous administration of 100 μmol of Gd/kg of body weight of metal complex I in rabbits. […]

[2] = organ distribution (including lymph node concentration) after intravenous administration in rats; conditions: 24 hours after administration
Description: After intravenous administration of 100 μmol of total gadolinium/kg of body weight of a polar Gd-chelate with perfluorinated side chains (metal complex X) in rats, the metal content in various organs as well as in the lymph nodes (pooled as mesenteric and peripheral lymph nodes) was determined 24 hours after administration (MW, n=2).
After intravenous administration of 200 μmol of total gadolinium/kg of body weight of a polar Gd-chelate with perfluorinated side chains (metal complex V) in rats, the metal content in various organs as well as in the lymph nodes (pooled as mesenteric and peripheral lymph nodes) was determined 24 hours after administration (MW, n=2).
After intravenous administration of 200 μmol of total gadolinium/kg of body weight of a polar Gd-chelate with perfluorinated side chains (metal complex III) in rats, the metal content in various organs as well as in the lymph nodes (pooled as mesenteric and peripheral lymph nodes) was determined 24 hours after administration (MW, n=2).

[3] = Mesenteric lymph nodes, 100 μmol Gd/kg i.v.
[4] = Peripheral lymph nodes, 100 μmol Gd/kg i.v.
[5] = Mesenteric lymph nodes, 200 μmol Gd/kg i.v.
[6] = Peripheral lymph nodes, 200 μmol Gd/kg i.v.

COCCN(CCOCCC(F)(F)C(F)(F)C(F)(F)C(F)(F)C(F)(F)C(F)(F)C(F)(F)C(F)(F)F)C(=O)CNC(=O)C(C)N1CCN(CC(=O)[O-])CCN(CC(=O)[O-])CCN(CC(=O)[O-])CC1.[Gd+3] (centres unmarked) [metal complex X]
signal in the infarction area (T1-weighted spin-echo images) (myocardial infarction; 6 hours after i.v. 100 μmol of Gd/kg): strong signal rise | enhancement of the primary tumor (especially the periphery) [1]: 277% | enhancement of the primary tumor (center of the tumor) ([1]; 24 hours p.i.): 217% | metal content ([2]; Blood, 100 μmol Gd/kg i.v.): 1 μmol Gd/L | metal content, % Dose ([2]; Blood, 100 μmol Gd/kg i.v.): 0.01 % Dose | metal content ([2]; Brain, 100 μmol Gd/kg i.v.): 1 μmol Gd/L | metal content, % Dose ([2]; Brain, 100 μmol Gd/kg i.v.): 0.01 % Dose | metal content ([2]; Carcass, 100 μmol Gd/kg i.v.): 192 μmol Gd/L | metal content, % Dose ([2]; Carcass, 100 μmol Gd/kg i.v.): 34.01 % Dose | metal content ([2]; Femur, 100 μmol Gd/kg i.v.): 3 μmol Gd/L | metal content, % Dose ([2]; Femur, 100 μmol Gd/kg i.v.): 0.01 % Dose | metal content ([2]; Heart, 100 μmol Gd/kg i.v.): 3 μmol Gd/L | metal content, % Dose ([2]; Heart, 100 μmol Gd/kg i.v.): 0.01 % Dose | metal content ([2]; Intestine, 100 μmol Gd/kg i.v.): 65 μmol Gd/L | metal content, % Dose ([2]; Intestine, 100 μmol Gd/kg i.v.): 1.22 % Dose | metal content ([2]; Kidneys, 100 μmol Gd/kg i.v.): 150 μmol Gd/L | metal content, % Dose ([2]; Kidneys, 100 μmol Gd/kg i.v.): 0.65 % Dose | metal content ([2]; Liver, 100 μmol Gd/kg i.v.): 104 μmol Gd/L | metal content, % Dose ([2]; Liver, 100 μmol Gd/kg i.v.): 2.34 % Dose | metal content ([2]; Lung, 100 μmol Gd/kg i.v.): 18 μmol Gd/L | metal content, % Dose ([2]; Lung, 100 μmol Gd/kg i.v.): 0.05 % Dose | metal content [2, 3]: 19 μmol Gd/L | metal content, % Dose [2, 3]: 0.01 % Dose | metal content ([2]; Muscle, 100 μmol Gd/kg i.v.): 1 μmol Gd/L | metal content, % Dose ([2]; Muscle, 100 μmol Gd/kg i.v.): 0.00 % Dose | metal content ([2]; Pancreas, 100 μmol Gd/kg i.v.): 6 μmol Gd/L | metal content, % Dose ([2]; Pancreas, 100 μmol Gd/kg i.v.): 0.02 % Dose | metal content [2, 4]: 11 μmol Gd/L | metal content, % Dose [2, 4]: 0.01 % Dose | metal content ([2]; Spleen, 100 μmol Gd/kg i.v.): 54 μmol Gd/L | metal content, % Dose ([2]; Spleen, 100 μmol Gd/kg i.v.): 0.07 % Dose | metal content ([2]; Stomach, 100 μmol Gd/kg i.v.): 49 μmol Gd/L | metal content, % Dose ([2]; Stomach, 100 μmol Gd/kg i.v.): 0.18 % Dose | metal content, % Dose ([2]; Total, 100 μmol Gd/kg i.v.): 38.58 % Dose

CC(C(=O)NCC(=O)NCC(=O)N1CCN(C(=O)CNC(=O)CNC(=O)C(C)N2CCN(CC(=O)[O-])CCN(CC(=O)[O-])CCN(CC(=O)[O-])CC2)CCN(C(=O)COCCC(F)(F)C(F)(F)C(F)(F)C(F)(F)C(F)(F)C(F)(F)C(F)(F)C(F)(F)F)CCN(C(=O)CNC(=O)CNC(=O)C(C)N2CCN(CC(=O)[O-])CCN(CC(=O)[O-])CCN(CC(=O)[O-])CC2)CC1)N1CCN(CC(=O)[O-])CCN(CC(=O)[O-])CCN(CC(=O)[O-])CC1.[Gd+3].[Gd+3].[Gd+3] (centres unmarked) [metal complex XIV, 1,4,7-Tris{1,4,7-tris(N-(carboxylatomethyl)-10-[N-1-methyl-3,6-diaza-2,5,8-trioxooctane-1,8-diyl]-1,4,7,10-tetraazacyclododecane, Gdcomplex}-10-N-2H,2H,4H,4H,5H,5H-3-oxa-perfluoro-tridecanoyl]-1,4,7,10-tetraazacyclo-dodecane, Gd complex]
signal in the infarction area (T1-weighted spin-echo images) (myocardial infarction; 3 hours after i.v. 100 μmol of Gd/kg): strong signal rise | enhancement of the primary tumor (especially the periphery) [1]: 594% | enhancement of the primary tumor (center of the tumor) ([1]; 120 hours p.i.): 162%

O=C([O-])CN1CCN(CC(=O)[O-])CCN(CC(O)CNC(=O)CCCC(=O)N2CCN(C(F)(F)C(F)(F)C(F)(F)C(F)(F)C(F)(F)C(F)(F)C(F)(F)C(F)(F)F)CC2)CCN(CC(=O)[O-])CC1.[Gd+3] (centres unmarked) [metal complex III]
signal in the infarction area (T1-weighted spin-echo images) (myocardial infarction; 22 hours after i.v. 100 μmol of Gd/kg): strong signal rise | enhancement of the primary tumor (especially the periphery) [1]: 232% | metal content ([2]; Blood, 200 μmol Gd/kg i.v.): 83 μmol Gd/L | metal content, % Dose ([2]; Blood, 200 μmol Gd/kg i.v.): 1.15 % Dose | metal content ([2]; Brain, 200 μmol Gd/kg i.v.): 10 μmol Gd/L | metal content, % Dose ([2]; Brain, 200 μmol Gd/kg i.v.): 0.05 % Dose | metal content ([2]; Carcass, 200 μmol Gd/kg i.v.): 242 μmol Gd/L | metal content, % Dose ([2]; Carcass, 200 μmol Gd/kg i.v.): 36.30 % Dose | metal content ([2]; Femur, 200 μmol Gd/kg i.v.): 76 μmol Gd/L | metal content, % Dose ([2]; Femur, 200 μmol Gd/kg i.v.): 0.32 % Dose | metal content ([2]; Heart, 200 μmol Gd/kg i.v.): 82 μmol Gd/L | metal content, % Dose ([2]; Heart, 200 μmol Gd/kg i.v.): 0.13 % Dose | metal content ([2]; Intestine, 200 μmol Gd/kg i.v.): 230 μmol Gd/L | metal content, % Dose ([2]; Intestine, 200 μmol Gd/kg i.v.): 3.56 % Dose | metal content ([2]; Kidneys, 200 μmol Gd/kg i.v.): 489 μmol Gd/L | metal content, % Dose ([2]; Kidneys, 200 μmol Gd/kg i.v.): 1.97 % Dose | metal content ([2]; Liver, 200 μmol Gd/kg i.v.): 1222 μmol Gd/L | metal content, % Dose ([2]; Liver, 200 μmol Gd/kg i.v.): 26.28 % Dose | metal content ([2]; Lung, 200 μmol Gd/kg i.v.): 338 μmol Gd/L | metal content, % Dose ([2]; Lung, 200 μmol Gd/kg i.v.): 0.96 % Dose | metal content [2, 5]: 455 μmol Gd/L | metal content, % Dose [2, 5]: 0.33 % Dose | metal content ([2]; Muscle, 200 μmol Gd/kg i.v.): 28 μmol Gd/L | metal content, % Dose ([2]; Muscle, 200 μmol Gd/kg i.v.): 0.04 % Dose | metal content ([2]; Pancreas, 200 μmol Gd/kg i.v.): 203 μmol Gd/L | metal content, % Dose ([2]; Pancreas, 200 μmol Gd/kg i.v.): 0.48 % Dose | metal content [2, 6]: 279 μmol Gd/L | metal content, % Dose [2, 6]: 0.18 % Dose | metal content ([2]; Spleen, 200 μmol Gd/kg i.v.): 464 μmol Gd/L | metal content, % Dose ([2]; Spleen, 200 μmol Gd/kg i.v.): 0.89 % Dose | metal content ([2]; Stomach, 200 μmol Gd/kg i.v.): 165 μmol Gd/L | metal content, % Dose ([2]; Stomach, 200 μmol Gd/kg i.v.): 0.57 % Dose | metal content, % Dose ([2]; Total, 200 μmol Gd/kg i.v.): 73.20 % Dose

CC(C(=O)NCC(=O)N(CCOCCC(F)(F)C(F)(F)C(F)(F)C(F)(F)C(F)(F)C(F)(F)C(F)(F)C(F)(F)F)CC(O)CO)N1CCN(CC(=O)[O-])CCN(CC(=O)[O-])CCN(CC(=O)[O-])CC1.[Gd+3] (centres unmarked) [metal complex V]
signal in the infarction area (T1-weighted spin-echo images) (myocardial infarction; 24 hours after i.v. 100 μmol of Gd/kg): strong signal rise | enhancement of the primary tumor (especially the periphery) [1]: 350% | enhancement of the primary tumor (center of the tumor) ([1]; 24 hours p.i.): 106% | metal content ([2]; Blood, 200 μmol Gd/kg i.v.): 15 μmol Gd/L | metal content, % Dose ([2]; Blood, 200 μmol Gd/kg i.v.): 0.18 % Dose | metal content ([2]; Brain, 200 μmol Gd/kg i.v.): 4 μmol Gd/L | metal content, % Dose ([2]; Brain, 200 μmol Gd/kg i.v.): 0.02 % Dose | metal content ([2]; Carcass, 200 μmol Gd/kg i.v.): 268 μmol Gd/L | metal content, % Dose ([2]; Carcass, 200 μmol Gd/kg i.v.): 37.93 % Dose | metal content ([2]; Femur, 200 μmol Gd/kg i.v.): 13 μmol Gd/L | metal content, % Dose ([2]; Femur, 200 μmol Gd/kg i.v.): 0.05 % Dose | metal content ([2]; Heart, 200 μmol Gd/kg i.v.): 14 μmol Gd/L | metal content, % Dose ([2]; Heart, 200 μmol Gd/kg i.v.): 0.02 % Dose | metal content ([2]; Intestine, 200 μmol Gd/kg i.v.): 113 μmol Gd/L | metal content, % Dose ([2]; Intestine, 200 μmol Gd/kg i.v.): 1.56 % Dose | metal content ([2]; Kidneys, 200 μmol Gd/kg i.v.): 436 μmol Gd/L | metal content, % Dose ([2]; Kidneys, 200 μmol Gd/kg i.v.): 1.77 % Dose | metal content ([2]; Liver, 200 μmol Gd/kg i.v.): 344 μmol Gd/L | metal content, % Dose ([2]; Liver, 200 μmol Gd/kg i.v.): 6.34 % Dose | metal content ([2]; Lung, 200 μmol Gd/kg i.v.): 62 μmol Gd/L | metal content, % Dose ([2]; Lung, 200 μmol Gd/kg i.v.): 0.17 % Dose | metal content [2, 5]: 70 μmol Gd/L | metal content, % Dose [2, 5]: 0.05 % Dose | metal content ([2]; Muscle, 200 μmol Gd/kg i.v.): 9 μmol Gd/L | metal content, % Dose ([2]; Muscle, 200 μmol Gd/kg i.v.): 0.02 % Dose | metal content ([2]; Pancreas, 200 μmol Gd/kg i.v.): 30 μmol Gd/L | metal content, % Dose ([2]; Pancreas, 200 μmol Gd/kg i.v.): 0.05 % Dose | metal content [2, 6]: 44 μmol Gd/L | metal content, % Dose [2, 6]: 0.02 % Dose | metal content ([2]; Spleen, 200 μmol Gd/kg i.v.): 116 μmol Gd/L | metal content, % Dose ([2]; Spleen, 200 μmol Gd/kg i.v.): 0.17 % Dose | metal content ([2]; Stomach, 200 μmol Gd/kg i.v.): 28 μmol Gd/L | metal content, % Dose ([2]; Stomach, 200 μmol Gd/kg i.v.): 0.08 % Dose | metal content, % Dose ([2]; Total, 200 μmol Gd/kg i.v.): 48.43 % Dose
